Measured values: patent US10421782B2, “Cyclic cationic peptides with antimicrobial activity” (I.C.F. S.R.L., priority 2012, dated 2019)
Converted amounts (≈) assume the structure as drawn. Where two headings read alike, the source gives them in different places. Where a SMILES comes first, the peptide text is derived from it. Bridges are numbered along the chain shown (N, C = ends).

Columns and labels:
[1] = system: Pseudomonas aeruginosa ATCC 27853; format: cell-based
Description: (§1) For each bacterial strain, 3-5 morphologically similar colonies were drawn from fresh cultures, inoculated in Brain Hearth Infusion broth liquid medium and incubated at the temperature of 37° C. under shaking at 225 r.p.m. for 3-4 h. Subsequently, the bacterial suspension was centrifuged at 1000 g for 20 min and the thus obtained pellet was resuspended in phosphate buffer 10 mM. Turbidity was measured in a spectrophotometer with absorbance at 600 nm, equivalent in the range 0.08-0.13 to a concentration of about 10^8 CFU/ml. The bacterial suspension was diluted 1:100 in phosphate buffer 10 mM, and within 30 min 50 microliters of such bacterial suspension (10^6 CFU/ml) were inoculated in each well of the microtiter plate, to obtain a final bacterial concentration of about 5×10^5 CFU/ml.
(§2) Several peptides were tested for their ability to inhibit bacterial growth in liquid culture. Fifty microliters of peptide at a concentration comprised between about 0.2 mM and 50 mM were added in 96-well U-bottom plates containing liquid growth medium and one of the following bacteria: Escherichia coli ATCC 25922, P. aeruginosa ATCC 27853, Stenotrophomonas maltophilia ATCC 13637. After 2 hour incubation at 37° C., bacteria were transferred on a solid medium. As a growth control, bacterial cultures were cultured in the absence of peptides.
(§3) The bacterial suspension was put in contact for two hours with different concentrations of the peptide at the temperature of 37° C. After incubation, 20 μl were drawn from the wells of each dilution and seeded on solid medium, agar McConkey. The inoculum was evenly distributed on the agarized medium by means of a sterile disposable loop. After incubation for 24 h at the temperature of 37° C., counting of the bacterial colonies (CFU) was performed.

[2] = system: Escherichia coli ATCC 25922; format: cell-based
Description: as §1, §2, §3

[3] = further tests, test of Table 2a

Row | Molecule | MBC P. aeruginosa ATCC 27853 ([1]; ATCC 27853) | MBC E. coli ATCC 25922 ([2]; ATCC 25922) | MBC P. aeruginosa ATCC 27853 [1, 3] | MBC E. coli ATCC 25922 [2, 3]
1 | C[C@@H](O)[C@@H]1NC(=O)[C@H](Cc2ccccc2)NC(=O)[C@@H](NC(=O)[C@H](CCCCN)NC(=O)[C@@H](N)CCCCN)CSSC[C@@H](C(=O)NCC(=O)O)NC(=O)[C@H](CCCCN)NC(=O)[C@H](CCCNC(=N)N)NC(=O)[C@H](Cc2ccc(O)cc2)NC(=O)[C@H](CC(N)=O)NC(=O)[C@H](CCCCN)NC(=O)CNC(=O)[C@H](CCCNC(=N)N)NC(=O)[C@H](Cc2c[nH]c3ccccc23)NC(=O)[C@H](CCCCN)NC(=O)[C@H](Cc2c[nH]c3ccccc23)NC1=O [SEQ.ID.NO.: 6, Lys*Lys*Cys*Phe*Thr*Trp*Lys*Trp*Arg*Gly*Lys*Asn*Tyr*Arg*Lys*Cys*Gly*] (H-KKCFTWKWRGKNYRKCG-OH; disulfide 3-16; N-terminus and C-terminus assumed) | 0.4 µg/mL (≈ 0.183 µM) | 1.81 µg/mL (≈ 0.827 µM) |  | 
2 | FFCGNKRWRGNYQGSCK [Peptide P127, reference compound] |  |  | inactive | inactive
3 | AKCRPLHTRGKQSAVCV [Peptide P14, reference compound] |  |  | inactive | inactive
4 | CC[C@H](C)[C@H](N)C(=O)N[C@@H](CCCNC(=N)N)C(=O)N[C@H]1CSSC[C@@H](C(=O)N[C@@H](CC(C)C)C(=O)O)NC(=O)[C@H](CCCCN)NC(=O)[C@H](CCCCN)NC(=O)[C@H](Cc2c[nH]c3ccccc23)NC(=O)[C@H](CCC(N)=O)NC(=O)[C@H](Cc2c[nH]cn2)NC(=O)CNC(=O)[C@H](CCCNC(=N)N)NC(=O)[C@H](Cc2ccc(O)cc2)NC(=O)[C@H](CC(N)=O)NC(=O)[C@H](Cc2c[nH]c3ccccc23)NC(=O)[C@H]([C@@H](C)O)NC(=O)[C@H](C)NC1=O [SEQ.ID.NO.: 10, Ile*Arg*Cys*Ala*Thr*Trp*Asn*Tyr*Arg*Gly*His*Gln*Trp*Lys*Lys*Cys*Leu*] (H-IRCATWNYRGHQWKKCL-OH; disulfide 3-16; N-terminus and C-terminus assumed) | 12.08 µg/mL (≈ 5.59 µM) | 24.6 µg/mL (≈ 11.4 µM) |  | 
5 | ANCWTRKIRGVVGVSCG [Peptide P195, reference compound] |  |  | inactive | inactive
6 | CC(C)C[C@H](NC(=O)[C@@H]1CSSC[C@H](NC(=O)CNC(=O)[C@@H](N)CCCNC(=N)N)C(=O)N[C@@H](Cc2c[nH]c3ccccc23)C(=O)N[C@@H](CCCNC(=N)N)C(=O)N[C@@H](Cc2c[nH]c3ccccc23)C(=O)N[C@@H](CCCCN)C(=O)N[C@@H](Cc2c[nH]c3ccccc23)C(=O)N[C@@H](CCCNC(=N)N)C(=O)NCC(=O)N[C@@H](C(C)C)C(=O)N[C@@H](Cc2c[nH]c3ccccc23)C(=O)N[C@@H](Cc2ccc(O)cc2)C(=O)N[C@@H](CCCCN)C(=O)N[C@@H](CCCCN)C(=O)N1)C(=O)O [SEQ.ID.NO.: 7, Arg*Gly*Cys*Trp*Arg*Trp*Lys*Trp*Arg*Gly*Val*Trp*Tyr*Lys*Lys*Cys*Leu*] (H-RGCWRWKWRGVWYKKCL-OH; disulfide 3-16; N-terminus and C-terminus assumed) | 3.4 µg/mL (≈ 1.47 µM) | 7.81 µg/mL (≈ 3.38 µM) |  | 
7 | CC[C@H](C)[C@H](NC(=O)[C@H](C)N)C(=O)N[C@H]1CSSC[C@@H](C(=O)N[C@@H](CCCCN)C(=O)O)NC(=O)[C@H](C)NC(=O)[C@H](CCCCN)NC(=O)[C@H](Cc2c[nH]c3ccccc23)NC(=O)[C@H](CCCCN)NC(=O)[C@H](Cc2c[nH]cn2)NC(=O)CNC(=O)[C@H](CCCNC(=N)N)NC(=O)[C@H](Cc2ccc(O)cc2)NC(=O)[C@H](CCCCN)NC(=O)[C@H](Cc2c[nH]c3ccccc23)NC(=O)[C@H]([C@@H](C)O)NC(=O)[C@H](CCCNC(=N)N)NC1=O [SEQ.ID.NO.: 4, Ala*Ile*Cys*Arg*Thr*Trp*Lys*Tyr*Arg*Gly*His*Lys*Trp*Lys*Ala*Cys*Lys*] (H-AICRTWKYRGHKWKACK-OH; disulfide 3-16; N-terminus and C-terminus assumed) | 1.14 µg/mL (≈ 0.534 µM) | 17.37 µg/mL (≈ 8.14 µM) |  | 
8 | CC(C)C[C@H](NC(=O)[C@@H]1CSSC[C@H](NC(=O)[C@H](CCCCN)NC(=O)CN)C(=O)N[C@@H](Cc2c[nH]c3ccccc23)C(=O)N[C@@H](CCCCN)C(=O)N[C@@H](Cc2c[nH]c3ccccc23)C(=O)N[C@@H](CCCCN)C(=O)N[C@@H](Cc2ccc(O)cc2)C(=O)N[C@@H](CCCNC(=N)N)C(=O)NCC(=O)N[C@@H](Cc2c[nH]cn2)C(=O)N[C@@H](Cc2ccc(O)cc2)C(=O)N[C@@H](Cc2c[nH]c3ccccc23)C(=O)N[C@@H](CCCNC(=N)N)C(=O)N[C@@H]([C@@H](C)O)C(=O)N1)C(=O)O [SEQ.ID.NO.: 8, Gly*Lys*Cys*Trp*Lys*Trp*Lys*Tyr*Arg*Gly*His*Tyr*Trp*Arg*Thr*Cys*Leu*] (H-GKCWKWKYRGHYWRTCL-OH; disulfide 3-16; N-terminus and C-terminus assumed) | 1.81 µg/mL (≈ 0.797 µM) | 9.26 µg/mL (≈ 4.08 µM) |  | 
9 | CC[C@H](C)[C@@H]1NC(=O)CNC(=O)[C@H](CCCNC(=N)N)NC(=O)[C@H](Cc2c[nH]c3ccccc23)NC(=O)[C@H]([C@@H](C)O)NC(=O)[C@H](Cc2c[nH]c3ccccc23)NC(=O)[C@H](CCCCN)NC(=O)[C@H](CC(C)C)NC(=O)[C@@H](NC(=O)[C@H](CC(N)=O)NC(=O)[C@@H](N)CCCNC(=N)N)CSSC[C@@H](C(=O)N[C@@H](CCCCN)C(=O)O)NC(=O)[C@H](CCCCN)NC(=O)[C@H](CC(C)C)NC(=O)[C@H](Cc2ccc(O)cc2)NC(=O)[C@H]([C@@H](C)O)NC1=O [SEQ.ID.NO.: 22, Arg*Asn*Cys*Leu*Lys*Trp*Thr*Trp*Arg*Gly*Ile*Thr*Tyr*Leu*Lys*Cys*Lys*] (H-RNCLKWTWRGITYLKCK-OH; disulfide 3-16; N-terminus and C-terminus assumed) |  |  | 1.08 µg/mL (≈ 0.498 µM) | 11.72 µg/mL (≈ 5.41 µM)
10 | CC[C@H](C)[C@@H]1NC(=O)CNC(=O)[C@H](CCCNC(=N)N)NC(=O)[C@H](Cc2c[nH]c3ccccc23)NC(=O)[C@H](CCCCN)NC(=O)[C@H](Cc2c[nH]c3ccccc23)NC(=O)[C@H](CCCCN)NC(=O)[C@H](CC(C)C)NC(=O)[C@@H](NC(=O)[C@H](CC(N)=O)NC(=O)[C@@H](N)CCCCN)CSSC[C@@H](C(=O)N[C@@H](CC(C)C)C(=O)O)NC(=O)[C@H](CCCCN)NC(=O)[C@H](CCCNC(=N)N)NC(=O)[C@H](Cc2ccc(O)cc2)NC(=O)[C@H]([C@@H](C)O)NC1=O [SEQ.ID.NO.: 9, Lys*Asn*Cys*Leu*Lys*Trp*Lys*Trp*Arg*Gly*Ile*Thr*Tyr*Arg*Lys*Cys*Leu*] (H-KNCLKWKWRGITYRKCL-OH; disulfide 3-16; N-terminus and C-terminus assumed) | 2.57 µg/mL (≈ 1.17 µM) | 7.56 µg/mL (≈ 3.44 µM) |  | 
11 | N=C(N)NCCC[C@@H]1NC(=O)[C@H](Cc2ccccc2)NC(=O)[C@H](CCCNC(=N)N)NC(=O)[C@H](Cc2ccc(O)cc2)NC(=O)[C@@H]2CCCN2C(=O)[C@H](Cc2ccccc2)NC(=O)[C@@H](NC(=O)[C@H](CCCCN)NC(=O)[C@@H](N)CCCNC(=N)N)CSSC[C@@H](C(=O)N[C@@H](Cc2ccc(O)cc2)C(=O)O)NC(=O)[C@H](CCCCN)NC(=O)[C@H](CCCCN)NC(=O)[C@H](Cc2ccccc2)NC(=O)[C@H](CCCNC(=N)N)NC(=O)[C@H](CCCCN)NC(=O)CNC1=O [SEQ.ID.NO.: 5, Arg*Lys*Cys*Phe*Pro*Tyr*Arg*Phe*Arg*Gly*Lys*Arg*Phe*Lys*Lys*Cys*Tyr*] (H-RKCFPYRFRGKRFKKCY-OH; disulfide 3-16; N-terminus and C-terminus assumed) | 1.09 µg/mL (≈ 0.478 µM) | 1.08 µg/mL (≈ 0.473 µM) |  | 
